Source: ChEMBL document CHEMBL5316344, “Homologation of the Alkyl Side Chain of Antimitotic Phenyl 4-(2-Oxo-3-alkylimidazolidin-1-yl)benzenesulfonate Prodrugs Selectively Targeting CYP1A1-Expressing Breast Cancers Improves Their Stability in Rodent Liver Microsomes” (J Med Chem, 2023)
pIC50: −log10 of the molar value.

Assays:
[1] = system: M21; assay: Antiproliferative activity against human M21 cells assessed as cell growth inhibition incubated for 48 hrs by sulforhodamine B assay; format: functional, cell-based; conditions: M21, 48 h
[2] = Selectivity ratio, ratio of IC50 for antiproliferative activity against human M21 cells to IC50 for antiproliferative activity against human MCF7 cells expressing CYP1A1; format: functional
[3] = system: MCF7; assay: Antiproliferative activity against human MCF7 cells expressing CYP1A1 assessed as cell growth inhibition incubated for 48 hrs by sulforhodamine B assay; format: functional, cell-based; conditions: MCF7, 48 h
[4] = system: HT-29; assay: Antiproliferative activity against human HT-29 cells assessed as cell growth inhibition incubated for 48 hrs by sulforhodamine B assay; format: functional, cell-based; conditions: HT-29, 48 h
[5] = Selectivity ratio, ratio of IC50 for antiproliferative activity against human HT-29 cells to IC50 for antiproliferative activity against human MCF7 cells expressing CYP1A1; format: functional
[6] = Stability in mouse liver microsomes assessed as half life incubated for 60 mins by HPLC analysis; format: ADME, Microsome
[7] = Stability in human liver microsomes assessed as intrinsic clearance incubated for 60 mins by HPLC analysis; format: ADME, Microsome; conditions: read-out: CLH
[8] = Stability in rat liver microsomes assessed as intrinsic clearance incubated for 60 mins by HPLC analysis; format: ADME, Microsome; conditions: read-out: CLH
[9] = Stability in rat liver microsomes assessed as half life incubated for 60 mins by HPLC analysis; format: ADME, Microsome
[10] = Stability in human liver microsomes assessed as half life incubated for 60 mins by HPLC analysis; format: ADME, Microsome
[11] = Stability in mouse liver microsomes assessed as intrinsic clearance incubated for 60 mins by HPLC analysis; format: ADME, Microsome; conditions: read-out: CLH

Row | Structure (SMILES) | pIC50 [1] | pIC50 [3] | pIC50 [4] | other results
1 | CCCCCN1CCN(c2ccc(S(=O)(=O)Oc3cccc(OC)c3)cc2)C1=O | < 4.90 | 6.59 | < 4.90 | Ratio IC50 [2]: >48; Ratio IC50 [5]: >48
2 | CCCCCN1CCN(c2ccc(S(=O)(=O)Oc3cc(F)cc(F)c3)cc2)C1=O | < 4.90 | 6.00 | < 4.90 | Ratio IC50 [2]: >13; Ratio IC50 [5]: >13
3 | CCCCCCN1CCN(c2ccc(S(=O)(=O)Oc3ccccc3OC)cc2)C1=O | < 5.60 | < 5.60 | < 5.60 | –
4 | CCCN1CCN(c2ccc(S(=O)(=O)Oc3cc(OC)c(OC)c(OO)c3)cc2)C1=O | – | – | – | half-life [6]: 8 min; microsomal CLint [7]: 13 µL/min/mg; microsomal CLint [8]: 19.5 µL/min/mg; half-life [9]: 71 min; half-life [10]: 109 min; microsomal CLint [11]: 174 µL/min/mg
5 | CCCCCCCCN1CCN(c2ccc(S(=O)(=O)Oc3cc(F)cc(F)c3)cc2)C1=O | < 5.90 | < 5.90 | < 5.90 | –
6 | CCCCCCN1CCN(c2ccc(S(=O)(=O)Oc3cc(F)cc(F)c3)cc2)C1=O | < 5.60 | 6.40 | < 5.60 | Ratio IC50 [2]: >6.3; Ratio IC50 [5]: >6.3
7 | CCCCCCCCN1CCN(c2ccc(S(=O)(=O)Oc3cc(Br)cc(Br)c3)cc2)C1=O | < 5.90 | < 5.90 | < 5.90 | –
8 | CCCCCCN1CCN(c2ccc(S(=O)(=O)Oc3cc(OC)c(OC)c(OC)c3)cc2)C1=O | < 5.60 | 6.85 | < 5.60 | Ratio IC50 [2]: >18; Ratio IC50 [5]: >18
9 | CCCCN1CCN(c2ccc(S(=O)(=O)Oc3cc(Cl)cc(Cl)c3)cc2)C1=O | – | – | – | half-life [6]: 15.4 min; microsomal CLint [7]: 16 µL/min/mg; microsomal CLint [8]: 29 µL/min/mg; half-life [9]: 47 min; half-life [10]: 89 min; microsomal CLint [11]: 90 µL/min/mg
10 | CCCCCCCCN1CCN(c2ccc(S(=O)(=O)Oc3ccc(OC)c(OC)c3)cc2)C1=O | < 5.90 | < 5.90 | < 5.90 | –
11 | CCCCCCCCN1CCN(c2ccc(S(=O)(=O)Oc3cccc(Cl)c3)cc2)C1=O | < 5.90 | < 5.90 | < 5.90 | –
12 | CCCCCN1CCN(c2ccc(S(=O)(=O)Oc3ccc(OC)c(OC)c3)cc2)C1=O | 6.30 | 6.15 | < 4.90 | Ratio IC50 [2]: >18; Ratio IC50 [5]: >18
13 | CCCCCCCCN1CCN(c2ccc(S(=O)(=O)Oc3cccc(OC)c3)cc2)C1=O | < 5.60 | < 5.60 | < 5.60 | –
14 | CCCCCCN1CCN(c2ccc(S(=O)(=O)Oc3cccc(OC)c3)cc2)C1=O | < 5.60 | < 5.60 | < 5.60 | –
15 | CCCCCCN1CCN(c2ccc(S(=O)(=O)Oc3ccc(OC)c(OC)c3)cc2)C1=O | < 5.90 | < 5.90 | < 5.90 | –
16 | CCCCCN1CCN(c2ccc(S(=O)(=O)Oc3cccc(F)c3)cc2)C1=O | < 4.90 | 5.92 | < 4.90 | Ratio IC50 [2]: >10; Ratio IC50 [5]: >10
17 | CCCCCCN1CCN(c2ccc(S(=O)(=O)Oc3ccc(F)c(F)c3)cc2)C1=O | < 5.60 | < 5.60 | < 5.60 | –
18 | CCCCCN1CCN(c2ccc(S(=O)(=O)Oc3cc(Br)cc(Br)c3)cc2)C1=O | < 6.30 | < 6.30 | < 6.30 | –
19 | CCCCCCCCN1CCN(c2ccc(S(=O)(=O)Oc3ccccc3OC)cc2)C1=O | < 5.60 | < 5.60 | < 5.60 | –
20 | CCCCCCN1CCN(c2ccc(S(=O)(=O)Oc3ccccc3)cc2)C1=O | < 5.60 | < 5.60 | < 5.60 | –
21 | CCCCCCCCN1CCN(c2ccc(S(=O)(=O)Oc3ccccc3)cc2)C1=O | < 5.90 | < 5.90 | < 5.90 | –
22 | CCCCCCCCN1CCN(c2ccc(S(=O)(=O)Oc3cccc(Br)c3)cc2)C1=O | < 5.90 | < 5.90 | < 5.90 | –
23 | CCCCCCN1CCN(c2ccc(S(=O)(=O)Oc3ccc(OC)cc3)cc2)C1=O | < 5.90 | < 5.90 | < 5.90 | –
